These are literature values, as cited in article PMC10070485, “In silico study of HASDI (high-affinity selective DNA intercalator) as a new agent capable of highly selective recognition of the DNA sequence” (Scientific Reports, 2023).

The test system of data set [1] is DNA sequences. Set-up: method as in PMID 31820194. The settings on record: MD, MM-PB(GB)SA, DFT.
For the next data set, the system named is A-T base pairs. The settings on record: fluorescence titrations.
The subject of data set [2] is DNA sequences of the d(ATGCAT)2 type. Set-up: method as in PMID 34299405. The settings on record: diamine linker in the major groove.
Data set [3] concerns DNA sequences. Set-up: method as in PMID 24446378. The settings on record: docking, MD, MM-PBSA, MESP.

As to `COc1cccc2c1C(=O)c1c(O)c3c(c(O)c1C2=O)C[C@@](O)(C(C)=O)C[C@@H]3O[C@H]1C[C@H](N)[C@H](O)[C@H](C)O1` [daunomycin], the DNA sequence specificity entry with DNA sequences [1] was “highest affinity for TC/GA rich sequences”.

As for neomycin-Hoechst 33258-pyrene conjugate, the “number of A-T base pairs selectively recognized” value in the data set on A-T base pairs is listed as “up to 9”.

On to `Cc1cccc2nc3cccc(C(=O)NCCNCCNCCNC(=O)c4cccc5nc6cccc(C)c6nc45)c3nc12` [MLN944], for which the “DNA sequence type of greatest affinity” value in data set [2] is “d(ATGCAT)2”.

In the case of `Nc1cccc2oc(-c3ccccc3)cc(=O)c12` [AMF, 5-aminoflavone], the DNA groove specificity entry with DNA sequences [3] was “stable in the minor groove of AT-rich DNA and in the major groove of GC-rich DNA”.

With `Cc1cc(-c2nc3cc(F)ccc3s2)ccc1N` [5F], in the data set on DNA sequences [3], the DNA groove specificity entry is “affinity only to the minor groove”.
